Experimental data reported in publication PMC11478287, “Design and Synthesis of Pyridyl and 2-Hydroxyphenyl Chalcones with Antitubercular Activity” (Molecules, 2024).
Entries after “also recorded” stand apart in the source; their conditions may differ. Read-outs that look alike come from different tables or passages of the source.

Experiments:
[1] = tested on: Mycobacterium tuberculosis H37Rv; experiment: microbe, parasite or virus in culture; type: cell-based; conditions: for IC90: read-out: Anti-tubercular activity M. tuberculosis (H37Rv) IC90; for IC50: SD in brackets, read-out: Anti-tubercular activity M. tuberculosis (H37Rv) IC50 (SD)
[2] = HepG2 cytotoxicity screening (CellTiter-Glo); type: cell-based; conditions: human, HepG2 cells; 50% decrease in viable cells after 72 h
Protocol: (§1) The cytotoxicity of compounds towards eukaryotic cells was determined using human liver cells (HepG2), non-tumorigenic human mammary epithelial cells (MCF-10A), and breast cancer cells (MDA-MB-468).
HepG2 cells were incubated with compounds for 72 h in medium containing either glucose or galactose, and cell viability was measured. The IC50 was determined as the concentration of compound causing a 50% decrease in viable cells after 72 h. Compounds were prepared as 10-point three-fold serial dilutions in DMSO. The highest concentration of compound tested was 100 µM where compounds were soluble in DMSO at 10 mM. […] HepG2 cells were cultured in complete DMEM (recipe: DMEM medium, 1X penicillin-streptomycin solution, 2 mM Corning Glutogro supplement, 1 mM sodium pyruvate, 10% v/v Fetal Bovine Serum), inoculated into 384-well assay plates and incubated for 24 h at 37 °C, 5% CO2. Compounds were added and cells were cultured for a further 72 h. The final DMSO concentration was 1%. Cell viability was determined using the CellTiter-Glo® Luminescent Cell Viability Assay (Promega, Madison, WI, USA) and measuring relative luminescent units (RLU). The dose-response curve was fitted using the Levenberg–Marquardt algorithm. The IC50 was defined as the compound concentration that produced a 50% decrease in viable cells. Each run included staurosporine as a control.

[3] = MDA-468 MTT cytotoxicity screening; type: cell-based; conditions: human, MDA-MB-468 (MDA468) breast cancer cells, quadruplicate
Protocol: as §1
(§2) Cells were purchased from the American Type Culture Collection (Manassas, VA, USA). MDA-468 cells were grown in RPMI-1640 medium with 10% (v/v) heat-inactivated foetal calf serum and L-glutamine (2 mM) without phenol red. MCF-10A cells were grown in Dulbecco’s modified Eagle’s medium/ Ham’s F-12 medium (1:1) with 5% (v/v) heat-inactivated foetal calf serum, epidermal growth factor (20 ng/mL), insulin (10 µg/mL), and hydrocortisone (500 ng/mL). Cells were maintained at 37 °C, 5% CO2 / 95% air with 100% humidity and passaged every 2–3 days using trypsin EDTA solution (0.25% w/v). Adhered cells at sub confluence were harvested for experimental use. The medium was aspirated and discarded, and trypsin-EDTA solution (1% w/v, 1 mL) was added to the cells. After 30 s this was aspirated and immediately replaced by a further 1 mL of trypsin-EDTA solution. The cells were incubated at 37 °C for approximately 5 min or until the cells were visibly non-adherent. The resultant cell suspension was placed in a 25 mL sterile universal container with 10 mL of fresh medium followed by centrifugation (3 min, 3000 rpm, and 4 °C). Old medium was aspirated and replaced with 10 mL of fresh medium. To determine the density of cells in suspension, an aliquot (100 µL) was added to a trypan-blue solution (0.4% w/v, 100 µL), and the number of viable cells were determined using a Neubauer haemocytometer. The cell suspension was diluted with relevant medium to give a cell count of 2 × 10^3 cells per mL. Aliquots (100 µL) were dispensed into sterile 96-well microtitre flat-bottomed plates. For the MDA-468 and MCF-10A cell lines the plates were incubated at 37 °C, 5% CO2/95% air with 100% humidity for 24 h prior to the addition of test compounds. Test compounds were added within 30 min into the wells from a 100 mM stock solution in DMSO and serially diluted to give final concentrations of […], 0.01, 0.003, 0.001, and 0.0003 µM. […] The cells were allowed to grow for 96 h at 5%, CO2, 37 °C to give 80–90% confluence in the control wells, after which 50 µL of MTT (3-[4,5 dimethylthiazol-2-yl]-2,5-diphenyl tetrazolium bromide, 2 mg mL^−1) in sterile phosphate buffer was added to each well and the plates were further incubated for 2 h. All medium was aspirated, and the formazan precipitate generated by viable cells was solubilised by 150 µL of DMSO. All the plates were vortexed, and the absorbance at 540 nm was determined using a Molecular Devices SpectraMax M5 plate reader. Results were expressed as a percentage of the control value versus the negative logarithm of the molar drug concentration range using Graph Pad Prism. Relative toxicities of each compound within each cell line were expressed as 50% of growth inhibition (IC50). All determinations were carried out in quadruplicate.

[4] = MCF-10A MTT cytotoxicity screening; type: cell-based; conditions: human, MCF-10A normal breast (mammary epithelial) cells, quadruplicate, read-out: Cytotoxicity MCF10A normal breast cells IC50
Protocol: as §1, §2

[5] = tested on: MDA468 breast cancer cells; set-up: method as in PMID 29332599; conditions: previously reported value ref 12; read-out: Cytotoxicity MDA468 breast cancer cells IC50; cited from earlier work
[6] = Mycobacterium tuberculosis, H37RV, 120 h, 5-day incubation, […]

| SMILES | IC90 [1, 6] | IC50 [1, 6] | IC50 at 72 h [2] | IC50 at 96 h [3] | IC50 at 96 h [4] | further results |
| --- | --- | --- | --- | --- | --- | --- |
| O=C(/C=C/c1cccnc1)c1ccc(Cl)cc1 [Compound 15, (E)-1-(4-chlorophenyl)-3-(pyridin-3-yl)prop-2-en-1-one] | 77 µM | 24 µM | 11 µM | – | – | – |
| Oc1ccccc1C1=NNC(c2cn(-c3ccccc3)nc2-c2ccccc2)C1 (stereo not drawn) [Compound 29, 2-(1′,3′-diphenyl-3,4-dihydro-1′H,2H-[3,4′-bipyrazol]-5-yl)phenol] | > 25 µM | 11 µM | 46.5 µM | – | – | Fold more active than parent compound 27 (IC50 H37Rv) ([1]; 29 versus 27): 10 fold |
| Oc1ccccc1C1=NNC(c2ccc(Cl)cc2)C1 (stereo not drawn) [Compound 30, 2-(5-(4-chlorophenyl)-4,5-dihydro-1H-pyrazol-3-yl)phenol] | – | 23 µM | 19.5 µM | – | – | – |
| COc1ccc(/C=C\c2cc(OC)c(OC)c(OC)c2)cc1O [Combretastatin A-4, reference compound] | – | – | – | 0.003 µM | 0.0016 µM | – |
| CO[C@H]1/C=C/O[C@@]2(C)Oc3c(C)c(O)c4c(O)c(c(/C=N/N5CCN(C)CC5)c(O)c4c3C2=O)NC(=O)/C(C)=C\C=C\[C@H](C)[C@H](O)[C@@H](C)[C@@H](O)[C@@H](C)[C@H](OC(C)=O)[C@@H]1C [Rifampicin, reference compound] | 0.0087 µM | 0.0044 µM | – | – | – | – |
| Oc1ccccc1C1=NNC(c2ccc(Br)cc2)C1 (stereo not drawn) [Compound 31, 2-(5-(4-bromophenyl)-4,5-dihydro-1H-pyrazol-3-yl)phenol] | 34 µM | 23 µM | 24.5 µM | – | – | – |
| COc1cccc(C(=O)/C=C/c2ccc(Cl)cc2)c1 [Compound 26, (E)-3-(4-chlorophenyl)-1-(3-methoxyphenyl)prop-2-en-1-one] | ≥ 28 µM | 20 µM | 13 µM | – | – | IC90 ([1]; 5-day incubation, […]): 28 µM |
| COc1ccccc1C(=O)/C=C/c1ccc(Br)cc1 [Compound 22] | 59 µM | 44.5 µM | 13 µM | – | – | – |
| O=C(/C=C/c1cn(-c2ccccc2)nc1-c1ccccc1)c1ccccc1O [Compound 27, (E)-3-(1,3-diphenyl-1H-pyrazol-4-yl)-1-(2-hydroxyphenyl)prop-2-en-1-one] | 97 to 100 µM | > 100 µM | 74 µM | – | – | IC90 ([1]; 5-day incubation, […]): > 100 µM |
| COc1cccc(C(=O)/C=C/c2ccc(Br)cc2)c1 [Compound 25, (E)-3-(4-bromophenyl)-1-(3-methoxyphenyl)prop-2-en-1-one] | 28 µM | 22 µM | 14 µM | – | – | – |
| O=C(/C=C/c1cccnc1)c1ccc2ccc3cccc4ccc1c2c34 [Compound 20, (E)-1-(pyren-1-yl)-3-(pyridin-3-yl)prop-2-en-1-one] | 22 µM | 8.8 µM | 1.8 µM | 4 µM | 2 µM | – |
| O=C(/C=C/c1cccnc1)c1ccc(O)cc1 [Compound 17] | > 100 µM | > 100 µM | > 100 µM | 30 µM | > 100 µM | Anti-tubercular activity (in words) ([1]; M. tuberculosis H37Rv): abolished |
| COc1cc(C(=O)/C=C/c2cccnc2)cc(OC)c1OC [Compound 16, (E)-3-(pyridin-3-yl)-1-(3,4,5-trimethoxyphenyl)prop-2-en-1-one] | 59 µM | 19 µM | 2 µM | 0.7 µM | 1.5 µM | – |
| O=C(/C=C/c1cccnc1)c1c2ccccc2cc2ccccc12 [Compound 19] | 48 µM | 10 µM | 2.7 µM | 0.3 µM | 4.4 µM | – |
| O=C(/C=C/c1ccc(Cl)cc1)c1ccccc1O [Compound 23, (E)-3-(4-chlorophenyl)-1-(2-hydroxyphenyl)prop-2-en-1-one] | 97 to 100 µM | – | 25 µM | – | – | IC90 ([1]; 5-day incubation, […]): > 100 µM |
| O=C(/C=C/c1cccc(Br)c1)c1cccnc1 [Compound 28, (E)-3-(3-bromophenyl)-1-(pyridin-3-yl)prop-2-en-1-one] | 65 µM | – | – | 0.7 µM | 5.2 µM | – |
| O=C(/C=C/c1cccnc1)c1ccccc1O [Compound 18, (E)-1-(2-hydroxyphenyl)-3-(pyridin-3-yl)prop-2-en-1-one] | > 100 µM | > 100 µM | 22 µM | 8 µM | 16 µM | Anti-tubercular activity (in words) ([1]; M. tuberculosis H37Rv): abolished |
| COc1cc(C(=O)/C=C/c2ccc3c(c2)OCO3)cc(OC)c1OC [Compound 2] | – | – | – | – | 2.3 µM | IC50 [5]: 0.006 µM; Anti-tubercular activity (in words) [1]: did not exhibit anti-tubercular activity; also recorded: no antitubercular activity; IC90 ([1]; Mycobacterium tuberculosis, H37RV, 120 h): > 100 µM |
| O=C(/C=C/c1cccnc1)c1ccc(-c2ccccc2)cc1 [Compound 21, (E)-1-([1,1′-biphenyl]-4-yl)-3-(pyridin-3-yl)prop-2-en-1-one] | 8.9 µM | 3.9 µM | 4.5 µM | 3.5 µM | 7 µM | – |
| O=C(/C=C/c1cccnc1)c1ccc(Cl)c(Cl)c1 [Compound 14, (E)-1-(3,4-dichlorophenyl)-3-(pyridin-3-yl)prop-2-en-1-one] | 28 µM | 12 µM | 2.5 µM | – | – | – |
| O=C(/C=C/c1ccc(Br)cc1)c1ccccc1O [Compound 24, (E)-3-(4-bromophenyl)-1-(2-hydroxyphenyl)prop-2-en-1-one] | 97 µM | > 100 µM | 14 µM | – | – | – |
